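Following 48 hours of exposure in 96-well plates, responses at five concentrations were used to interpolate endpoints linearly. GI50 marks 50% less growth. At the TGI there is no net growth.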
Assays:
Assay in all cases: growth of human tumour cells (NCI), 48 h
SK-MEL-2 melanoma = system: SK-MEL-2 melanoma
TK-10 renal = system: TK-10 renal
SF-539 CNS = system: SF-539 CNS
CCRF-CEM leukemia = system: CCRF-CEM leukemia
MDA-MB-435 = system: MDA-MB-435
MDA-MB-231 breast = system: MDA-MB-231 breast
BT-549 breast = system: BT-549 breast
EKVX NSCLC = system: EKVX NSCLC
HL-60(TB) leukemia = system: HL-60(TB) leukemia
NCI/ADR-RES ovarian = system: NCI/ADR-RES ovarian

Molecule | TGI (SK-MEL-2 melanoma) | TGI (TK-10 renal) | TGI (SF-539 CNS) | TGI (CCRF-CEM leukemia) | TGI (MDA-MB-435) | TGI (MDA-MB-231 breast) | TGI (BT-549 breast) | TGI (EKVX NSCLC) | TGI (HL-60(TB) leukemia) | TGI (NCI/ADR-RES ovarian) | GI50 (SK-MEL-2 melanoma) | GI50 (TK-10 renal) | GI50 (SF-539 CNS) | GI50 (CCRF-CEM leukemia) | GI50 (MDA-MB-435) | GI50 (MDA-MB-231 breast) | GI50 (BT-549 breast) | GI50 (EKVX NSCLC) | GI50 (HL-60(TB) leukemia) | GI50 (NCI/ADR-RES ovarian)
OCC1OC2OC3C(CO)OC(OC4C(CO)OC(OC5C(CO)OC(OC6C(CO)OC(OC7C(CO)OC(OC1C(O)C2O)C(O)C7O)C(O)C6O)C(O)C5O)C(O)C4O)C(O)C3O (centres undefined) (tested in a mixture with another compound) | > 100 µM | > 100 µM | > 78.8 µM | > 100 µM | 40.7 µM | > 100 µM | > 100 µM | > 100 µM | 55 µM | > 96.1 µM | – | – | – | – | – | – | – | – | – | –
H-HIIKKIRTWYRKAWHVLGKV-NH2 | 28.2 µM | 15.6 µM | 5.31 µM | > 100 µM | 65.9 µM | 22.3 µM | 32.1 µM | 6.73 µM | 23.3 µM | 28.5 µM | 5.31 µM | 3.24 µM | 2.14 µM | 3.71 µM | 5.15 µM | 6.47 µM | 12.8 µM | 2.37 µM | 4.29 µM | 5.85 µM
C=CC[C@@H]1/C=C(\C)C[C@H](C)C[C@H](OC)[C@H]2O[C@@](O)(C(=O)C(=O)N3CCCC[C@H]3C(=O)O[C@H](/C(C)=C/C3CC[C@@H](O)[C@H](OC)C3)[C@H](C)[C@@H](O)CC1=O)[C@H](C)C[C@@H]2OC (some centres undefined) | 33.4 µM | 27.8 µM | 34 µM | 39.7 µM | 37.7 µM | 31.4 µM | 27.2 µM | 34.5 µM | 38.4 µM | 35.3 µM | 17.4 µM | 14.3 µM | 17.5 µM | 14.6 µM | 16.2 µM | 15.8 µM | 10 µM | 14.2 µM | 16.4 µM | 15 µM
Cc1cc2cc3cc(C)c(N)cc3[n+](C)c2cc1N | 8.1 µM | 12.7 µM | 7.75 µM | 17.5 µM | 6.42 µM | 8.39 µM | 9.31 µM | 14.1 µM | 7.74 µM | 23.4 µM | 3.31 µM | 4.06 µM | 2.79 µM | 1.36 µM | 2.21 µM | 1.59 µM | 2.34 µM | 1.36 µM | 2.31 µM | 5.56 µM
Cc1ccc(-c2nc(N)c(C#N)c3c2CCOc2c-3ccc3ccccc23)cc1 | – | 13.6 µM | 3.48 µM | 1.36 µM | 0.459 µM | 0.626 µM | 54 µM | – | 0.916 µM | 31.5 µM | – | 0.469 µM | 0.457 µM | 0.224 µM | 0.0309 µM | 0.07 µM | 3.85 µM | 3.12 µM | 0.0891 µM | 0.331 µM
CC(C(=O)O)/C(=C\c1ccc2c(c1)OCO2)C(=O)O (centres undefined) | > 100 µM | > 100 µM | > 100 µM | – | > 100 µM | > 100 µM | > 100 µM | > 100 µM | 0.21 µM | > 100 µM | – | – | – | – | – | – | – | – | – | –
CCN(CC)CCCCNc1ncc2cc(-c3cc(OC)cc(OC)c3)c(NC(=O)NC(C)(C)C)nc2n1 | 13 µM | 21.1 µM | 7.16 µM | 66.1 µM | 18.2 µM | 17 µM | 18 µM | – | 4.8 µM | 27.3 µM | 3.67 µM | 6.77 µM | 1.99 µM | 3.96 µM | 4.87 µM | 5.89 µM | 2.15 µM | – | 1.99 µM | 8.01 µM

Reference: PubChem BioAssay (NCI)
